Results published in the Kinase Knowledgebase extract (Sharma et al. 2016).

Assays:
[1] = target: MAPK14 (human) (UniProt Q16539); experiment: Enzyme Assay; details: for activity: 10.0 µM
[2] = target: EGFR (human) (UniProt P00533); details: for activity: 10.0 µM
[3] = test system: EGFR (human), P00533 [L747-T751del,Sins]; details: 10.0 µM
[4] = target: CDK2 (human) (UniProt P24941); experiment: Enzyme Assay; details: for activity: 10.0 µM
[5] = test system: PIK3CA (human), P42336 [H1047Y]; experiment: Enzyme Assay; details: 10.0 µM
Sequence of PIK3CA (human), P42336 [H1047Y] (P42336 whole entry H1047Y, looked up): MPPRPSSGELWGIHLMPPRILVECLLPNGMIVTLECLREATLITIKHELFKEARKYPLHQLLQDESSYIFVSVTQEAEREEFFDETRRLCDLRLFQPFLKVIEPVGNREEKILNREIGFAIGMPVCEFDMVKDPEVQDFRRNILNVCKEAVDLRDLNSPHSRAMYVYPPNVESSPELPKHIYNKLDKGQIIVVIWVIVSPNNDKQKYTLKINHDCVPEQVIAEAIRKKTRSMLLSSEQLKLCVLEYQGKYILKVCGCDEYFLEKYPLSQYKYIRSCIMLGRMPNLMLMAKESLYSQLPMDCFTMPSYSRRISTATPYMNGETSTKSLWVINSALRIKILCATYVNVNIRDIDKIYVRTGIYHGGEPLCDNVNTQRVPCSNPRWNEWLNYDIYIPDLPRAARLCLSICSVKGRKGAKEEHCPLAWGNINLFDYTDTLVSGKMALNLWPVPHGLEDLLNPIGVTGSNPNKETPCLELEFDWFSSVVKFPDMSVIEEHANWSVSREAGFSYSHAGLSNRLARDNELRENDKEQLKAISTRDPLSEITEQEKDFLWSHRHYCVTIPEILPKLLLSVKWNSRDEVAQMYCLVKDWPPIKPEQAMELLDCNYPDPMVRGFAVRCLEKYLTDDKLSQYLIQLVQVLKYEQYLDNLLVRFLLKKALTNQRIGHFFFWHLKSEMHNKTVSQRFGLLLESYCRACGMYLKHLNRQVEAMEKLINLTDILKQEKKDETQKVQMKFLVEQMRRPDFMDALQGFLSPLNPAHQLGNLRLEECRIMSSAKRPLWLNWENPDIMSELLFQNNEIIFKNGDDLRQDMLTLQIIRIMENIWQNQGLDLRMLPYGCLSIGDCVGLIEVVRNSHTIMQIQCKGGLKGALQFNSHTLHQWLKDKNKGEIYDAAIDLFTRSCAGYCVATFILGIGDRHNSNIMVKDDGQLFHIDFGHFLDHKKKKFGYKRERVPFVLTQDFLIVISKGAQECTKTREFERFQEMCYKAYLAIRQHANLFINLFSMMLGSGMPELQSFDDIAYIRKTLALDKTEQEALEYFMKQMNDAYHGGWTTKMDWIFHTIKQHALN

[6] = target: ROCK2 (human) (UniProt O75116); experiment: Enzyme Assay; details: 10.0 µM
Sequence of ROCK2 (human) (O75116 whole entry, looked up): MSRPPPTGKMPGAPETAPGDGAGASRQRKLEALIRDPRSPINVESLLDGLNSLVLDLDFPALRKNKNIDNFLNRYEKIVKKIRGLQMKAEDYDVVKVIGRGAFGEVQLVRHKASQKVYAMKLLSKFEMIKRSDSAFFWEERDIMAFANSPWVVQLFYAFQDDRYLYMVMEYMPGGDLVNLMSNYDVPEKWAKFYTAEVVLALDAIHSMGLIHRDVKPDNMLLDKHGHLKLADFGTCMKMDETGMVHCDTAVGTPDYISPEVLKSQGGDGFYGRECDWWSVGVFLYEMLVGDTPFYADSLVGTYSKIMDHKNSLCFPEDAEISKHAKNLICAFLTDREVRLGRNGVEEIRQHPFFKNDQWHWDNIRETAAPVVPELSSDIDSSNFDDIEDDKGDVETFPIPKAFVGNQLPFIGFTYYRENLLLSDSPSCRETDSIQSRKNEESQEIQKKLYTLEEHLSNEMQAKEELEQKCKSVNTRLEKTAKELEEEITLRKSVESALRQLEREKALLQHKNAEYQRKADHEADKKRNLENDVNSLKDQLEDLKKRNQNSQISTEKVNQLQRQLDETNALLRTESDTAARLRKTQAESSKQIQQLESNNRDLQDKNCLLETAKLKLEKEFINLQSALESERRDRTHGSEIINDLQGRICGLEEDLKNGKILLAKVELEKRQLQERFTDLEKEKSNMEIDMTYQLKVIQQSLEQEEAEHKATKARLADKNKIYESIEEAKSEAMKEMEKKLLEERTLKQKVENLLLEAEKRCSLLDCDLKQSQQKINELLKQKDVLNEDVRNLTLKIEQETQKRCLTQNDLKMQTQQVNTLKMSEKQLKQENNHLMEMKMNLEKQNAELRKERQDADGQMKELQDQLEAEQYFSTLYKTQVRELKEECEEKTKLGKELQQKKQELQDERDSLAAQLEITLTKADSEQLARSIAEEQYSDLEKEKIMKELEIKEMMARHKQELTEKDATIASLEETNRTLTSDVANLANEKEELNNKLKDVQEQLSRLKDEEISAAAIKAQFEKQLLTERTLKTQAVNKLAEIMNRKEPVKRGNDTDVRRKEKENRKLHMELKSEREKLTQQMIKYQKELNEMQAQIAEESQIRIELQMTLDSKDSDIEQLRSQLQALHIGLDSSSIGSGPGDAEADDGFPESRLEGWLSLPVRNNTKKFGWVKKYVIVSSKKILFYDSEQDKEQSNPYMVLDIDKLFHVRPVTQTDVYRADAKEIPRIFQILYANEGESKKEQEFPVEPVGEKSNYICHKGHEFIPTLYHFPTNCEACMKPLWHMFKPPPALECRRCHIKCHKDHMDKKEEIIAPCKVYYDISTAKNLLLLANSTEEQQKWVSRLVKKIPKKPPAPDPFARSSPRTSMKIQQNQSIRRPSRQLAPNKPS

[7] = target: PIK3CG (human) (UniProt P48736); experiment: Enzyme Assay; details: 10.0 µM
Sequence of PIK3CG (human) (P48736 whole entry, looked up): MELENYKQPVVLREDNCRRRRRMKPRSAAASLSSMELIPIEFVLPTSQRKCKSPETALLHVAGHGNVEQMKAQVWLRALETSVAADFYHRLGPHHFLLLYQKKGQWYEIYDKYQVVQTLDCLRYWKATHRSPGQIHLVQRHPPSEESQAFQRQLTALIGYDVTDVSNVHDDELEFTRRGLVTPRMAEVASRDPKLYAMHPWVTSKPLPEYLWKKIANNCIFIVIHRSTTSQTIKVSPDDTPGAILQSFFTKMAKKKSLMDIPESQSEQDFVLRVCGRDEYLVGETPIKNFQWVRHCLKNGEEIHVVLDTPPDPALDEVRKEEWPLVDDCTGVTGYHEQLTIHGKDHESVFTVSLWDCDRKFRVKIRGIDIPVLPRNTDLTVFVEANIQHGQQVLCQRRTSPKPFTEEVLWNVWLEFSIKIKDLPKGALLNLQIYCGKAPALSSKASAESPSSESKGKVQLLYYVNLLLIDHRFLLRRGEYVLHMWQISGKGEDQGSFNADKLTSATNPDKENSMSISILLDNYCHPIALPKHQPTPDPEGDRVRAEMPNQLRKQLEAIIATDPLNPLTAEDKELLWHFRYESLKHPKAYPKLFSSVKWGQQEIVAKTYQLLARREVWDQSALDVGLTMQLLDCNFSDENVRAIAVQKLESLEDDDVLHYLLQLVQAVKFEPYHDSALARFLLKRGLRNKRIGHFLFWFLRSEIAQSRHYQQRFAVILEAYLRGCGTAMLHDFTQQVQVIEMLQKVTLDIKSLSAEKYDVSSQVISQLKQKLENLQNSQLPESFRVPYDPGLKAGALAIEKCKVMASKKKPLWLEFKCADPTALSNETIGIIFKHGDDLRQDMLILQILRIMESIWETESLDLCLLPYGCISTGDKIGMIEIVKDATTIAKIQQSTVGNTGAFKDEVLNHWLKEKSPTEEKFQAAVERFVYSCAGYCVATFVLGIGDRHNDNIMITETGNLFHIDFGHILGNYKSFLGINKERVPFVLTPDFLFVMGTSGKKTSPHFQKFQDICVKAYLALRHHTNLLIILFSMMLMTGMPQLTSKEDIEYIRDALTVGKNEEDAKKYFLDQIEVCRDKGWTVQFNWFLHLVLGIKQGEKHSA

[8] = target: PIK3CA (human) (UniProt P42336); experiment: Enzyme Assay; details: 10.0 µM
Sequence of PIK3CA (human) (P42336 whole entry, looked up): as the sequence (P42336 whole entry H1047Y, looked up) above, with Y1047H counted along it

[9] = test system: PIK3CA (human), P42336 [M1043I]; experiment: Enzyme Assay; details: 10.0 µM
Sequence of PIK3CA (human), P42336 [M1043I] (P42336 whole entry M1043I, looked up): as the sequence (P42336 whole entry H1047Y, looked up) above, with M1043I, Y1047H counted along it

[10] = target: PIK3CD (Human) (UniProt O00329); experiment: Enzyme Assay; details: 10.0 µM
[11] = target: PIK3CB (Human) (UniProt P42338); experiment: Enzyme Assay; details: 10.0 µM
Sequence of PIK3CB (Human) (P42338 whole entry, looked up): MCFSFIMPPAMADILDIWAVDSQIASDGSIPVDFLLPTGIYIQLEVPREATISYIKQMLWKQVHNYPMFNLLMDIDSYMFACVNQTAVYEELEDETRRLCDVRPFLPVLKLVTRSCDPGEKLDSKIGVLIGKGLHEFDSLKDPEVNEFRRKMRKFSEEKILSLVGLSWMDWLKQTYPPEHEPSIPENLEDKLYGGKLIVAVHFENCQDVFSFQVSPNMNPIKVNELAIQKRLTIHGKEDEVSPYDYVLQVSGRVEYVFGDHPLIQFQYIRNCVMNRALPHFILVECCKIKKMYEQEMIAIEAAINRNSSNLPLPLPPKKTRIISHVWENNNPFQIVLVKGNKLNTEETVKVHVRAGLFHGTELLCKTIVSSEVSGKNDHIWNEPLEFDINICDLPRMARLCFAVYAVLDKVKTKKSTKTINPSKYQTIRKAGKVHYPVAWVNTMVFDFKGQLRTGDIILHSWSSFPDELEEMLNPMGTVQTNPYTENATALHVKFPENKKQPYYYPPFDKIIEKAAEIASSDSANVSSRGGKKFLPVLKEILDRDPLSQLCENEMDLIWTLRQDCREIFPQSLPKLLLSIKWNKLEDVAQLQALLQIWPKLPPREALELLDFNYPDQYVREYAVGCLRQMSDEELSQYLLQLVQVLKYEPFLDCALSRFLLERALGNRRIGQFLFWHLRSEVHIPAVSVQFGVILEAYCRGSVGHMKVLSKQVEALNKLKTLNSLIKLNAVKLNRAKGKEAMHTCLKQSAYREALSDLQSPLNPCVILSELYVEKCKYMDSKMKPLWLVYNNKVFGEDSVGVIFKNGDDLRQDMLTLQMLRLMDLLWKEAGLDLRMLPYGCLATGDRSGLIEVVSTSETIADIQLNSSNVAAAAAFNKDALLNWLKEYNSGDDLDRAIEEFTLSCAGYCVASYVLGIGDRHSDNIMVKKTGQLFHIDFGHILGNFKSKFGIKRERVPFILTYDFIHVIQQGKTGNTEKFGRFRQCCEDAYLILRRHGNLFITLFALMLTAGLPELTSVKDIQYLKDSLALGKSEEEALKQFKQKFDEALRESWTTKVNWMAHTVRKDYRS

[12] = test system: PIK3CA (human), P42336 [E542K]; experiment: Enzyme Assay; details: 10.0 µM
[13] = test system: PIK3CA (human), P42336 [E545A]; experiment: Enzyme Assay; details: 10.0 µM
[14] = test system: PIK3CA (human), P42336 [I800L]; experiment: Enzyme Assay; details: 10.0 µM
[15] = test system: PIK3CA (human), P42336 [H1047L]; experiment: Enzyme Assay; details: 10.0 µM
[16] = test system: PIK3CA (human), P42336 [C420R]; experiment: Enzyme Assay; details: 10.0 µM
[17] = test system: PIK3CA (human), P42336 [Q546K]; experiment: Enzyme Assay; details: 10.0 µM
Sequence of PIK3CA (human), P42336 [Q546K] (P42336 whole entry Q546K, looked up): as the sequence (P42336 whole entry H1047Y, looked up) above, with Q546K, Y1047H counted along it

[18] = test system: PIK3CA (human), P42336 [E545K]; experiment: Enzyme Assay; details: 10.0 µM
[19] = test system: EGFR (Human), P00533 [T790M/L858R]; details: 10.0 µM
[20] = test system: EGFR (human), P00533 [T790M]; details: 10.0 µM
[21] = test system: EGFR (human), P00533 [G719C]; details: 10.0 µM
[22] = test system: EGFR (human), P00533 [L747-E749del, A750P]; details: 10.0 µM
[23] = test system: EGFR (human), P00533 [L858R]; details: 10.0 µM
[24] = test system: EGFR (human), P00533 [S752-I759del]; details: 10.0 µM
[25] = test system: EGFR (human), P00533 [L747-S752del, P753S]; details: 10.0 µM
[26] = test system: EGFR (human), P00533 [E746-A750del]; details: 10.0 µM
[27] = test system: EGFR (human), P00533 [G719S]; details: 10.0 µM
[28] = test system: EGFR (human), P00533 [L861Q]; details: 10.0 µM

Sequence of MAPK14 (human) (Q16539 whole entry, looked up): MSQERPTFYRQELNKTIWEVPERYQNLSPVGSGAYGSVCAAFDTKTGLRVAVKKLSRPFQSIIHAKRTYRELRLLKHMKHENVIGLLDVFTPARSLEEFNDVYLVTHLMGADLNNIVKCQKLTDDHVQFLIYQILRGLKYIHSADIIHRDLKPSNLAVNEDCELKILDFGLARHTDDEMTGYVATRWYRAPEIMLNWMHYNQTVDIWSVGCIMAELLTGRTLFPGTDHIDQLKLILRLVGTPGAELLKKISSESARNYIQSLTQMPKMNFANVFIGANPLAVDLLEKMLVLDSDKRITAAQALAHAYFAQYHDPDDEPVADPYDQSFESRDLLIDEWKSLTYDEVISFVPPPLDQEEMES

Compound | IC50 [1] [µM] | IC50 [2] [µM] | activity [3] [%] | activity [4] [%] | activity [5] [%] | activity [6] [%] | activity [7] [%] | activity [8] [%] | activity [9] [%] | activity [10] [%] | activity [11] [%] | activity [12] [%] | activity [13] [%] | activity [14] [%] | activity [15] [%] | activity [1] [%] | activity [16] [%] | activity [17] [%] | activity [18] [%] | activity [19] [%] | activity [2] [%] | activity [20] [%] | activity [21] [%] | activity [22] [%] | activity [23] [%] | activity [24] [%] | activity [25] [%] | activity [26] [%] | activity [27] [%] | activity [28] [%] | IC50 [4] [µM]
Cc1csc(-c2nnc(Nc3ccc(Oc4ncccc4-c4ccnc(N)n4)cc3)c3ccccc23)c1 | 0.053 | – | – | – | – | – | – | – | – | – | – | – | – | – | – | – | – | – | – | – | – | – | – | – | – | – | – | – | – | – | –
Cc1ccc(C(=O)Nc2cccc(C(F)(F)F)c2)cc1Nc1nc(-c2cccnc2)nc2c1cnn2C | – | > 10 | – | – | – | – | – | – | – | – | – | – | – | – | – | – | – | – | – | – | – | – | – | – | – | – | – | – | – | – | –
COc1cc2c(Nc3ccc(NC(=O)c4ccccc4)cc3)ncnc2cc1OCCCN1CCOCC1 | – | – | 26 | 82 | 24 | 34 | 100 | 100 | 99 | 100 | 81 | 100 | 19 | 100 | 99 | 100 | 68 | 17 | 98 | 85 | 0 | 42 | 0 | 22 | 8 | 14 | 41 | 36 | 0 | 6 | –
O=C(Nc1ccc(OC(F)(F)F)cc1)c1sccc1NCc1ccnc2ccccc12 | – | > 10 | – | – | – | – | – | – | – | – | – | – | – | – | – | – | – | – | – | – | – | – | – | – | – | – | – | – | – | – | > 10
Cc1ccc(NC(=O)c2cccc(C(C)(C)C#N)c2)cc1Nc1ccc2ncn(C)c(=O)c2c1 | – | – | 14 | 100 | 100 | 80 | 99 | 100 | 89 | 99 | 100 | 100 | 89 | 100 | 100 | 0 | 100 | 88 | 100 | 99 | 37 | 79 | 49 | 11 | 48 | 17 | 19 | 15 | 37 | 34 | –
